Results published in the supplement of paper PMC4862054.

Key:
Details in all cases: incubation time: 72 h
BT-474 [1] = assay: normalised response (% of control), CellTox Green; higher = less cell death (100 = DMSO, 0 = benzethonium chloride kill control)
In short: (§1)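 Values are normalised signals, each belonging to one concentration of the series. Breast cancer cells (20 µl suspension) were seeded into 384-well plates with compound at 5 concentrations in 10-fold steps over a compound-specific 10,000-fold range and incubated 72 h. Readouts were CellTox Green fluorescence (485/520 nm), then CellTiter-Glo luminescence after 10 min at room temperature, with each plate set to 0.1 % DMSO as 100 and a positive kill control as 0.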

BT-549 [2] = assay: as above
In short: as §1

CAL-120 [3] = assay: as above
In short: as §1

CAL-148 [4] = assay: as above
In short: as §1

CAL-51 [5] = assay: as above
In short: as §1

CAL-85-1 [6] = assay: as above
In short: as §1

DU-4475 [7] = assay: as above
In short: as §1

HCC1143 [8] = assay: as above
In short: as §1

HCC1599 [9] = assay: as above
In short: as §1

HCC1937 [10] = assay: as above
In short: as §1

Hs578T [11] = assay: as above
In short: as §1

MCF-10A [12] = assay: as above
In short: as §1

MDA-MB-231 [13] = assay: as above
In short: as §1

MDA-MB-436 [14] = assay: as above
In short: as §1

MDA-MB-453 [15] = assay: as above
In short: as §1

MDA-MB-468 [16] = assay: as above
In short: as §1

MFM-223 [17] = assay: as above
In short: as §1

BT-474 [18] = assay: normalised response (% of control), CellTiter-Glo; higher = more viable cells (100 = DMSO, 0 = benzethonium chloride kill control)
Procedure: (§2)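 DSRT, 72 h incubation, CellTox Green / CellTiter-Glo readout. Signal is normalised to DMSO and benzethonium chloride controls. Value is the normalised response at dose 3.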

BT-549 [19] = assay: as above
Procedure: as §2

CAL-120 [20] = assay: as above
Procedure: as §2

CAL-148 [21] = assay: as above
Procedure: as §2

CAL-51 [22] = assay: as above
Procedure: as §2

CAL-85-1 [23] = assay: as above
Procedure: as §2

DU-4475 [24] = assay: as above
Procedure: as §2

HCC1143 [25] = assay: as above
Procedure: as §2

HCC1599 [26] = assay: as above
Procedure: as §2

HCC1937 [27] = assay: as above
Procedure: as §2

HDQ-P1 [28] = assay: as above
Procedure: as §2

Hs578T [29] = assay: as above
Procedure: as §2

MCF-10A [30] = assay: as above
Procedure: as §2

MDA-MB-231 [31] = assay: as above
Procedure: as §2

MDA-MB-436 [32] = assay: as above
Procedure: as §2

MDA-MB-453 [33] = assay: as above
Procedure: as §2

MDA-MB-468 [34] = assay: as above
Procedure: as §2

MFM-223 [35] = assay: as above
Procedure: as §2

SK-BR-3 = assay: as above
Procedure: as §2

HDQ-P1 [36] = assay: normalised response (% of control), CellTox Green; higher = less cell death (100 = DMSO, 0 = benzethonium chloride kill control)
In short: as §1

Structure (SMILES): CS(=O)(=O)c1ccc(C2=C(c3ccccc3)C(=O)OC2)cc1 [Rofecoxib] (100 nM)
- normalised response (BT-474 [1]): 104%
- normalised response (BT-549 [2]): 95.7%
- normalised response (CAL-120 [3]): 104%
- normalised response (CAL-148 [4]): 101%
- normalised response (CAL-51 [5]): 111%
- normalised response (CAL-85-1 [6]): 107%
- normalised response (DU-4475 [7]): 108%
- normalised response (HCC1143 [8]): 98.7%
- normalised response (HCC1599 [9]): 101%
- normalised response (HCC1937 [10]): 68.7%
- normalised response (Hs578T [11]): 103%
- normalised response (MCF-10A [12]): 88.5%
- normalised response (MDA-MB-231 [13]): 117%
- normalised response (MDA-MB-436 [14]): 104%
- normalised response (MDA-MB-453 [15]): 106%
- normalised response (MDA-MB-468 [16]): 118%
- normalised response (MFM-223 [17]): 88.2%
- normalised response (BT-474 [18]): 101%
- normalised response (BT-549 [19]): 106%
- normalised response (CAL-120 [20]): 104%
- normalised response (CAL-148 [21]): 109%
- normalised response (CAL-51 [22]): 105%
- normalised response (CAL-85-1 [23]): 102%
- normalised response (DU-4475 [24]): 102%
- normalised response (HCC1143 [25]): 108%
- normalised response (HCC1599 [26]): 99%
- normalised response (HCC1937 [27]): 95.8%
- normalised response (HDQ-P1 [28]): 98.7%
- normalised response (Hs578T [29]): 109%
- normalised response (MCF-10A [30]): 114%
- normalised response (MDA-MB-231 [31]): 106%
- normalised response (MDA-MB-436 [32]): 105%
- normalised response (MDA-MB-453 [33]): 108%
- normalised response (MDA-MB-468 [34]): 104%
- normalised response (MFM-223 [35]): 104%
- normalised response (SK-BR-3): 110%

Structure (SMILES): NC(=O)Nc1cc(-c2cccc(F)c2)sc1C(=O)N[C@H]1CCCNC1 [AZD7762] (10 nM)
- normalised response (BT-474 [1]): 101%
- normalised response (BT-549 [2]): 96.5%
- normalised response (CAL-120 [3]): 99.8%
- normalised response (CAL-148 [4]): 96%
- normalised response (CAL-51 [5]): 113%
- normalised response (CAL-85-1 [6]): 100%
- normalised response (DU-4475 [7]): 99.5%
- normalised response (HCC1143 [8]): 105%
- normalised response (HCC1599 [9]): 116%
- normalised response (HCC1937 [10]): 107%
- normalised response (HDQ-P1 [36]): 108%
- normalised response (MCF-10A [12]): 102%
- normalised response (MDA-MB-231 [13]): 104%
- normalised response (MDA-MB-436 [14]): 91%
- normalised response (MDA-MB-453 [15]): 105%
- normalised response (MDA-MB-468 [16]): 104%
- normalised response (MFM-223 [17]): 104%
- normalised response (BT-474 [18]): 105%
- normalised response (BT-549 [19]): 101%
- normalised response (CAL-120 [20]): 106%
- normalised response (CAL-148 [21]): 106%
- normalised response (CAL-51 [22]): 106%
- normalised response (CAL-85-1 [23]): 97.5%
- normalised response (DU-4475 [24]): 102%
- normalised response (HCC1143 [25]): 110%
- normalised response (HCC1599 [26]): 91.3%
- normalised response (HCC1937 [27]): 95%
- normalised response (HDQ-P1 [28]): 94%
- normalised response (Hs578T [29]): 94.5%
- normalised response (MCF-10A [30]): 99.5%
- normalised response (MDA-MB-231 [31]): 104%
- normalised response (MDA-MB-436 [32]): 104%
- normalised response (MDA-MB-453 [33]): 81.9%
- normalised response (MDA-MB-468 [34]): 102%
- normalised response (MFM-223 [35]): 103%
- normalised response (SK-BR-3): 103%

Structure (SMILES): Cn1c(Nc2ccc(C(F)(F)F)cc2)nc2cc(Oc3ccnc(-c4ncc(C(F)(F)F)[nH]4)c3)ccc21 [RAF265] (10 nM)
- normalised response (BT-474 [1]): 96.2%
- normalised response (BT-549 [2]): 98.1%
- normalised response (CAL-120 [3]): 101%
- normalised response (CAL-148 [4]): 103%
- normalised response (CAL-51 [5]): 92.7%
- normalised response (CAL-85-1 [6]): 106%
- normalised response (DU-4475 [7]): 103%
- normalised response (HCC1143 [8]): 116%
- normalised response (HCC1599 [9]): 107%
- normalised response (HDQ-P1 [36]): 52.6%
- normalised response (Hs578T [11]): 98%
- normalised response (MCF-10A [12]): 64.3%
- normalised response (MDA-MB-231 [13]): 104%
- normalised response (MDA-MB-436 [14]): 90.1%
- normalised response (MDA-MB-453 [15]): 108%
- normalised response (MDA-MB-468 [16]): 158%
- normalised response (MFM-223 [17]): 103%
- normalised response (BT-474 [18]): 107%
- normalised response (BT-549 [19]): 99.5%
- normalised response (CAL-120 [20]): 107%
- normalised response (CAL-148 [21]): 113%
- normalised response (CAL-51 [22]): 83.3%
- normalised response (CAL-85-1 [23]): 99.6%
- normalised response (DU-4475 [24]): 105%
- normalised response (HCC1143 [25]): 102%
- normalised response (HCC1599 [26]): 116%
- normalised response (HCC1937 [27]): 100%
- normalised response (HDQ-P1 [28]): 99.2%
- normalised response (Hs578T [29]): 106%
- normalised response (MCF-10A [30]): 118%
- normalised response (MDA-MB-231 [31]): 110%
- normalised response (MDA-MB-436 [32]): 109%
- normalised response (MDA-MB-453 [33]): 106%
- normalised response (MDA-MB-468 [34]): 102%
- normalised response (MFM-223 [35]): 105%
- normalised response (SK-BR-3): 108%

Structure (SMILES): CCCCCCCCCCCCCCCCCCOP(=O)([O-])OC1CC[N+](C)(C)CC1 [Perifosine] (25 nM)
- normalised response (BT-474 [1]): 102%
- normalised response (BT-549 [2]): 97.1%
- normalised response (CAL-120 [3]): 103%
- normalised response (CAL-148 [4]): 103%
- normalised response (CAL-51 [5]): 93.7%
- normalised response (CAL-85-1 [6]): 109%
- normalised response (DU-4475 [7]): 104%
- normalised response (HCC1143 [8]): 89.7%
- normalised response (HCC1599 [9]): 97.9%
- normalised response (HCC1937 [10]): 88%
- normalised response (Hs578T [11]): 105%
- normalised response (MCF-10A [12]): 106%
- normalised response (MDA-MB-231 [13]): 92.4%
- normalised response (MDA-MB-436 [14]): 112%
- normalised response (MDA-MB-453 [15]): 99.7%
- normalised response (MDA-MB-468 [16]): 95.6%
- normalised response (MFM-223 [17]): 93.5%
- normalised response (BT-474 [18]): 101%
- normalised response (BT-549 [19]): 101%
- normalised response (CAL-120 [20]): 109%
- normalised response (CAL-148 [21]): 88.8%
- normalised response (CAL-51 [22]): 96.8%
- normalised response (CAL-85-1 [23]): 98.5%
- normalised response (DU-4475 [24]): 96%
- normalised response (HCC1143 [25]): 101%
- normalised response (HCC1599 [26]): 101%
- normalised response (HCC1937 [27]): 103%
- normalised response (HDQ-P1 [28]): 108%
- normalised response (Hs578T [29]): 100%
- normalised response (MCF-10A [30]): 105%
- normalised response (MDA-MB-231 [31]): 105%
- normalised response (MDA-MB-436 [32]): 104%
- normalised response (MDA-MB-453 [33]): 87%
- normalised response (MDA-MB-468 [34]): 100%
- normalised response (MFM-223 [35]): 93.4%
- normalised response (SK-BR-3): 91.3%
